Paper PMC12867150, “A fungi-derived cyclic peptide enhances Th9-mediated antitumor immunity by targeting ZAP70 and SREBP1” (The Journal of Clinical Investigation, 2025)
Values joined by “and” are separate entries in the source; they are usually repeats but may differ in a detail not shown here. Identical values can stand only once.

Tests used:
endogenous CD4+ T cells = assay: Flow cytometry of endogenous CD4+ T cells in spleen, LN, tumor (Figure 2D-E, S1F-H); assay type: in vivo, mouse; settings: for Frequencies of endogenous CD4⁺ T cells in LN: Supplemental Figure 1G left; for Number of endogenous CD4⁺ T cells in LN: Supplemental Figure 1G right; for CD4 gate number: representative flow plot; for endogenous CD4 T cells (%) / number of endogenous CD4 T cells: individual mice, n = 4
Procedure: C57BL/6 mice were subcutaneously injected with 5 × 10^5 B16-OVA melanoma cells. Five days after tumor implantation, mice received an intravenous infusion of 2 × 10^6 in vitro–differentiated Th9 cells (cultured for 5 days), which were derived from OT-II CD45.1 donor mice, accompanied by 4 × 10^5 OVA peptide–pulsed DCs via the tail vein. To enhance T cell engraftment and facilitate lymphodepletion, a single intraperitoneal injection of cyclophosphamide (200 mg/kg, Sigma, catalog C0768) was administered 1 day prior to T cell transfer. Mice were euthanized at designated time points for the collection and analysis of spleens, tumor-draining lymph nodes, and tumor tissues.
Details regarding staining panels (human and mouse), reagents (including clones and catalog numbers), acquisition settings, compensation/controls, and analysis procedures are provided in Supplemental Methods.
BioLegend, Cat. No. 422301 or Mouse TruStain FcX™, BioLegend, Cat. No. 101319) for 10 minutes at 4°C. For surface marker detection, cells were stained with fluorochrome-conjugated monoclonal antibodies in 96-well V-bottom plates and incubated on ice for 30 minutes. After staining, cells were washed twice and resuspended in FACS buffer for analysis.
Prior to intracellular cytokine staining, cells were restimulated for 4 hours with PMA (Absin, Cat. No. abs9107), ionomycin (Sigma-Aldrich, Cat. No. I0634), and brefeldin A (MedChemExpress, Cat. No. HY-16592). For intracellular cytokine staining, cells were first surface-stained as described above, then fixed and permeabilized using the BD Cytofix/Cytoperm™ kit (BD Biosciences, Cat. No. 554714) according to the manufacturer ’s protocol. Intracellular proteins were stained with directly conjugated antibodies targeting IL-9, IL-17a, IL-4, IFN-γ, TNF-α, FOXP3, p-ZAP70, Perforin, and […]
Antibodies used for mouse samples included those against IL-9 (PE, clone RM9A4, Biolegend, Cat. No. 514104), IFN-γ (PE, clone XMG1.2, Biolegend, Cat. No.
Cat. No. 103138), CD4 (APC/Cy7, clone E-AB-F1353UJ, Elabscience, Cat. No.
AF18028), CD8α (PerCP/Cy5.5, clone E-AB-F1104UJ, Elabscience, Cat. No. […]
clone E-AB-F1187UH, Elabscience, Cat. No. AF19854), TNF-α (BV421, clone MP6-XT22, Biolegend, Cat. No. 506328), FOXP3 (PE, clone FJK-16s, eBioscience, Cat. No.
Perforin (APC, clone S16009A, Biolegend, Cat. No. 154303) and Granzyme B (APC, […]
clone QA16A02, Biolegend, Cat. No. 372203). […]
Figure S1. EpA enhances immune responses. […]
I) Representative flow-cytometric plots of endogenous CD4⁺ and CD8⁺ T cells in spleens (F), LNs (G), and tumors (H); frequencies and absolute numbers of endogenous CD4⁺ (G) and CD8⁺ (I) T cells in LNs are quantified. (J and K) […]
Statistical analysis was performed using two-way ANOVA with Tukey’s post hoc test (A), one-way ANOVA with Tukey’s post hoc test (B) or two-tailed unpaired Student’s t-test (D and G–M). ns, not significant. *p < 0.05, **p < 0.01, ****p < 0.0001.
(also on this page, place not known: Mouse weight (g) CtrlEpA CtrlEpA CtrlEpA0 I CD45.1+ T cells (%) CtrlEpA CD4+ T cells (%) CtrlEpA CtrlEpA CtrlEpA FSC CD8 CD8 FSC FSC FSC BNumber of CD45.1+ T cells (×103 per mgĎ Number of CD4+ T cells (×104 per mgĎ DC (%)NK cells (%) NK cells (%) DC (%) Number of DC (×103 per mg) Number of NK cells (×105) Number of NK cells (×103 per mg) Number of DC (×105) FSC FSC FSC CD8 CtrlEpA CtrlEpA CtrlEpA CD8+ T cells (%) Number of CD8+ T cells (×104 per mgĎ nsns ns nsns ns 40 IL-6 (pg/ml)) […]

Treg cells = assay: Treg polarization, Foxp3 by flow cytometry (Figure 1I); assay type: cell-based, mouse
Procedure: Naive CD4^+ T cells were isolated from the spleens of C57BL/6J or CD45.1^+ OT-II mice using the MojoSort Mouse CD4 Naive T Cell Isolation Kit (BioLegend, catalog 480040), following the manufacturer’s protocol. Purified cells were cultured in RPMI-1640 medium supplemented with 10% FBS, 1% penicillin-streptomycin, and 0.1% β-mercaptoethanol (Gibco, catalog 21985023).
T cell polarization was initiated under plate-bound anti-CD3 (2 μg/mL, clone 17A2, BioXCell, catalog BE0002) and soluble anti-CD28 (1 μg/mL, clone 37.51, BioXCell, catalog BE0015-1) stimulation, with the addition of cytokines and neutralizing antibodies specific to each subset. For Th9 cells, these included IL-4 (10 ng/mL, Peprotech, catalog 400-04), TGF-β (1 ng/mL, EPOTO Biotech, catalog HF-2021), anti–IL-12 (5 μg/mL, clone C17.8, BioXCell, catalog BE0051), and anti–IFN-γ (10 μg/mL, clone XMG1.2, BioXCell, catalog BE0055); for Th1 cells, these included IL-12 (10 ng/mL, GenScript, catalog Z03211-50) and anti–IL-4 (5 μg/mL, clone 11B11, BioXCell, catalog BE0045); for Th2 cells, these included IL-4 (50 ng/mL), anti–IFN-γ (20 μg /mL), anti–IL-12 (5 μg/mL), Th17 cells: IL-6 (20 ng/mL, EPOTO Biotech, catalog MF-1006), TGF-β (1 ng/mL), IL-1β (10 ng/mL, Peprotech, catalog AF-211-11B), anti–IFN-γ (10 μg/mL), anti–IL-12 (5 μg/mL), and anti–IL-4 (5 μg/mL); and for Tregs, these included TGF-β (3 ng/mL). […]

## anteiso-C15 Leu7 surfactin [EpA]
Endogenous CD4+ T cells; LN, replicate 1
  Frequencies of endogenous CD4⁺ T cells in LN: 32.6
  Number of endogenous CD4⁺ T cells in LN: 43261
Endogenous CD4+ T cells; LN, replicate 2
  Frequencies of endogenous CD4⁺ T cells in LN: 26.4
  Number of endogenous CD4⁺ T cells in LN: 37630
Endogenous CD4+ T cells; LN, replicate 3
  Frequencies of endogenous CD4⁺ T cells in LN: 36
  Number of endogenous CD4⁺ T cells in LN: 15416
Endogenous CD4+ T cells; LN, replicate 4
  Frequencies of endogenous CD4⁺ T cells in LN: 26
  Number of endogenous CD4⁺ T cells in LN: 15595.7
Endogenous CD4+ T cells; LN, Figure S1G
  CD4 gate number: 36.0
Endogenous CD4+ T cells; Spleen, Figure S1F
  CD4 gate number: 26.1
Endogenous CD4+ T cells; Tumor, Figure S1H
  CD4 gate number: 15.2
Endogenous CD4+ T cells; spleens, lymph nodes, tumors, result in words
  endogenous CD4+ T cell frequency and number: minimal changes
Endogenous CD4+ T cells; spleens
  endogenous CD4 T cells (%): 30.3% and 32.9% and 35.5% and 26.1%
  number of endogenous CD4 T cells: 1093264 and 1018812 and 1081910 and 535955
Endogenous CD4+ T cells; tumors
  endogenous CD4 T cells (%): 15.2% and 16.6% and 24% and 21.6%
  number of endogenous CD4 T cells: 158 and 294 and 393 and 62
Treg cells; EpA 10 μM, individual replicates, n = 4
  Foxp3 expression under Treg polarization: 47.3 and 45.9 and 45.6 and 47.5
Treg cells; result in words
  effect on Treg polarization: did not affect
